# Assays:
# [1] = tested on: purified recombinant COX-1; experiment: COX-1 enzyme based assay; assay type: biochemical
# Experimental: COX-1 and COX-2 enzyme based assays were carried out to check the inhibitory potential of the test compounds on the production of prostaglandin by purified recombinant COX-1/COX-2 enzyme (Proc. Nat. Acad. Sci. USA, 88, 2692-2696, 1991; J. Clin. Immunoassay 15, 116-120, 1992). In this assay, the potential of the test compound to inhibit the production of prostaglandin either by COX-1 or COX-2 from arachidonic acid (substrate) was measured. This was an enzyme based in-vitro assay to evaluate selective COX inhibition with good reproducibility.
# Arachidonic acid was converted to PGH2 (Intermediate product) by COX1/COX-2 in the presence or absence of the test compound. The reaction was carried out at 37° C. and after 2 minutes it was stopped by adding 1M HCl. Intermediate product PGH2 was converted to a stable prostanoid product PGF2α by SnCl2 reduction. The amount of PGF2α produced in the reaction was inversely proportional to the COX inhibitory potential of the test compound. The prostanoid product was quantified via enzyme immunoassay (EIA) using a broadly specific antibody that binds to all the major forms of prostaglandin, using Cayman ELISA kit as per the procedure outlined by the manufacturer (Cayman Chemicals, Ann Arbor, USA).
# [2] = tested on: Oxazolone induced dermatitis; experiment: Psoriasis model, oxazolone induced dermatitis; assay type: in vivo, mice; conditions: Table XVb summary, dermatitis model not specified
# Experimental: Inhibitory Activity in Psoriasis Model Oxazolone induced dermatitis in mice was performed as described in the literature. Female Balb/c were selected in the age of 6-7 weeks for the study and 20-25 g. Mice were sensitized with oxazolone (15%) from Day 1 to day 6 by applying it on the shaved abdomen. Elicitation was done with oxazolone (2%) on the ear on day 7. Test compounds were applied topically on the ear 15 minutes and 6 hours post oxazolone application on day 7. 24 hours after oxazolone application, ear thickness is measured and ear were excised under anesthesia and weighed.
smiles,measurement,setting,value
"CCOC(=O)C1CCN(c2nc(C(F)(F)F)nc(-c3ccc(F)cc3)c2-c2cccc(S(N)(=O)=O)c2)CC1 [Example 59, Ethyl-1-[5-(3-aminosulfonylphenyl)-6-(4-fluorophenyl)-2-(trifluoromethyl)pyrimidin-4-yl]piperidine-4-carboxylate]",% Inhibition in rEnzyme Assay COX-1,[1]; 10 μM,32%
same,COX1 at 10 μm,"[1]; Table XVa summary, 10 μm",32
"NS(=O)(=O)c1cccc(-c2c(-c3ccc(F)cc3)nc(C(F)(F)F)nc2-n2ccnc2)c1 [Example 80, 3-[4-(4-Fluorophenyl)-6-(1H-imidazol-1-yl)-2-(trifluoromethyl)pyrimidin-5-yl]benzenesulfonamide]",Psoriasis Ear thickness,[2],19

# Source: patent US8420653B2, “Pyrimidine compounds and their uses” (Orchid Chemicals & Pharmaceuticals Limited, priority 2008, dated 2013)
